{"source": "paper PMC8508960", "about": "“Ruthenium Half-Sandwich Type Complexes with Bidentate Monosaccharide Ligands Show Antineoplastic Activity in Ovarian Cancer Cell Models through Reactive Oxygen Species Production” (International Journal of Molecular Sciences, 2021)", "key": {"[1]": {"test_system": "A2780 human ovarian carcinoma cells", "experiment": "SRB proliferation assay (48 h) on A2780 cells", "format": "cell-based", "details": "for cytostatic activity in long-term SRB assay (in words): A2780 cells, 100–0.0017 µM; for A2780 Hill Slope / IC50: SRB, nonlinear regression, N/A = could not be calculated/had no effect", "method": "(§1) Cells were cultured under standard cell culture conditions, 37 °C, 5% CO2, humidified atmosphere. A2780 cells were cultured in RMPI 1640 medium supplemented with 10% fetal calf serum, 2 mM glutamine, and 1% penicillin–streptomycin (Sigma-Aldrich). ID8 cells were cultured in high-glucose DMEM (4.5 g/L glucose) supplemented with 4% fetal calf serum, 2 mM glutamine, 1% penicillin–streptomycin (Sigma-Aldrich), and 1% ITS supplement (Sigma-Aldrich I3146). U251 cells were maintained in MEM (Sigma-Aldrich), 10% fetal bovine serum (Sigma-Aldrich), 1% penicillin/streptomycin (Invitrogene), and 2 mM glutamine. MCF7 cells were maintained in MEM (Sigma-Aldrich), 10% fetal bovine serum (Sigma-Aldrich), 1% penicillin/streptomycin (Invitrogen, Waltham, MA, USA), and 2 mM glutamine. Capan2 cells were maintained in MEM (Sigma-Aldrich), 10% fetal bovine serum (Sigma-Aldrich), 1% penicillin/streptomycin (Invitrogen), and 2 mM glutamine. Human primary dermal fibroblasts were cultured in low-glucose DMEM (1 g/L glucose) supplemented with 20% fetal calf serum, 2 mM glutamine, and 1% penicillin–streptomycin (Sigma-Aldrich).\n(§2) The SRB accumulation assay assesses protein content in a sample, and it was used to assess cell proliferation. The SRB accumulation assay was performed similarly to [68]. Cells were seeded in 96-well plates. The next day, cells were treated with the compounds for 48 h in the concentrations indicated in a cell incubator. At the end of treatment, cells were fixed with 10% trichloroacetic acid (TCA). Fixed cells were stained with SRB (0.4% m/v dissolved in 1% acetic acid) for 60 min. Fixed cells were washed in 1% acetic acid three times; acetic acid was removed, and cells were left to dry. Protein-bound SRB was released by adding 100 µL of 10 mM Tris base. Plates were measured in a plate photometer (Thermo Scientific Multiscan GO spectrophotometer, Waltham, MA, USA) at 540 nm. On each plate, wells were designed to contain untreated cells. In calculations, the readings for these wells were considered as 1, and all readings were expressed relative to these values.\n(§3) Statistical analysis was performed using Graphpad Prism version 8.0.1. Values were tested for normal distribution using the D’Agostino and Pearson normality test. When necessary, values were log-normalized or were normalized using the Box–Cox normalization method, as indicated in the figure captions. Nonlinear regression was performed using the built-in “[Inhibitor] vs. response—variable slope (four parameters), least square fit” utility of Graphpad that yielded IC50 and Hill slope values."}, "[2]": {"test_system": "ID8 cells", "experiment": "SRB proliferation assay (48 h) on ID8 cells", "format": "cell-based", "details": "for ID8 Hill Slope / IC50: SRB, nonlinear regression, N/A = could not be calculated/had no effect; for cytostatic activity in long-term SRB assay (in words): ID8 cells", "method": "as §1, §2, §3"}, "[3]": {"test_system": "human primary skin fibroblasts", "experiment": "SRB proliferation assay (48 h) on primary fibroblasts", "format": "cell-based", "method": "as §1, §2, §3"}, "[4]": {"test_system": "A2780 human ovarian carcinoma cells", "experiment": "MTT reduction assay (4 h, rapid toxicity) on A2780 cells", "format": "cell-based", "method": "as §1\nThe MTT reduction assay assesses the activity of mitochondrial complex I, and it was used to assess rapid toxicity. The MTT reduction assay was performed similarly to [67]. Cells were seeded in 96-well plates. The next day, cells were treated with the compounds for 4 h in the concentrations indicated in a cell incubator. At the end of treatment, MTT was added in 0.5 mg/mL final concentration, and cells were incubated at 37 °C in a cell incubator. Then, culture media was removed, the reduced MTT dye was resolved in dimethyl sulfoxide (DMSO), and plates were measured in a plate photometer (Thermo Scientific Multiscan GO spectrophotometer, Waltham, MA, USA) at 540 nm. On each plate, wells were designed to contain untreated/vehicle-treated cells. In calculations, the readings for these wells were considered as 1, and all readings were expressed relative to these values."}, "[5]": {"test_system": "A2780 cells", "experiment": "SRB assay on A2780 cells with or without 3 µM rucaparib", "format": "cell-based, human", "details": "48 h, 3 µM", "method": "as §2, §3"}, "[6]": {"details": "SRB, nonlinear regression, N/A = could not be calculated/had no effect"}}, "note": "Several values for one entry are separate records, joined by “and”; a condition that tells them apart may be missing. Identical values can stand only once. Entries after “also recorded” stand apart in the source; their conditions may differ."}
{"smiles": "CC(=O)OCC1OC(c2n[n+]3c(o2)-c2cccc[n+]2[Ru-]3[Cl])C(OC(C)=O)C(OC(C)=O)C1OC(C)=O.Cc1ccc(C(C)C)cc1.F[P-](F)(F)(F)(F)F", "note": "(mixture of isomers) [Ru-5]", "values": [{"measurement": "cytostatic activity in long-term SRB assay (in words)", "setting": "[1]", "value": "abrogated the inhibitory activity"}]}
{"smiles": "Cc1ccc(C(C)C)cc1.F[P-](F)(F)(F)(F)F.OCC1OC(c2nnc(-c3ccccn3)o2)C(O)C(O)C1O.[Cl][Ru+]", "note": "(mixture of isomers) [Ru-10]", "values": [{"measurement": "cytostatic activity in long-term SRB assay (in words)", "setting": "[1]", "value": "abrogated the inhibitory activity"}]}
{"smiles": "N.N.O=C([O-])C1(C(=O)[O-])CCC1.[Pt+2]", "note": "[Carboplatin, carboplatin, reference compound]", "values": [{"measurement": "ID8 Hill Slope", "setting": "[2]", "value": 0.62}, {"measurement": "effect in long-term SRB assay (in words)", "setting": "[3]; primary human fibroblasts", "value": "no effect"}, {"measurement": "A2780 Hill Slope", "setting": "[1]", "value": 1.02}, {"measurement": "IC50", "setting": "[1]", "value": 28, "unit": "µM"}]}
{"smiles": "N.N.[Cl][Pt][Cl]", "note": "[Cisplatin, cisplatin, reference compound]", "values": [{"measurement": "IC50", "setting": "[2]", "value": 10.8, "unit": "µM"}, {"measurement": "ID8 Hill Slope", "setting": "[2]", "value": 0.99}, {"measurement": "Fibroblast Hill Slope", "setting": "[3]; [6]", "value": 1.53}, {"measurement": "IC50", "setting": "[3]; SRB, nonlinear regression, N/A = could not be calculated/had no effect, read-out: Fibroblast IC50", "value": 11.9, "unit": "µM"}, {"measurement": "effect in SRB assay above 10 µM", "setting": "[3]; primary human fibroblasts, above 10 µM", "value": "cytostatic"}, {"measurement": "A2780 Hill Slope", "setting": "[1]", "value": 1.20}, {"measurement": "IC50", "setting": "[1]", "value": 1.21, "unit": "µM"}]}
{"smiles": "O=C(OC[C@H]1O[C@@H](n2cc(-c3ccccn3)nn2)[C@H](OC(=O)c2ccccc2)[C@@H](OC(=O)c2ccccc2)[C@@H]1OC(=O)c1ccccc1)c1ccccc1", "note": "[Complex L-2a, 1-(2′,3′,4′,6′-Tetra-O-benzoyl-β-D-glucopyranosyl)-4-(pyridin-2-yl)-1,2,3-triazole]", "values": [{"measurement": "cytostatic activity in long-term SRB assay (in words)", "setting": "[2]", "value": "none of the corresponding ligands (L-2a, L-4, L-6, and L-8) had cytostatic properties"}, {"measurement": "effect in long-term SRB assay (in words)", "setting": "[3]; primary human fibroblasts", "value": "no effect"}, {"measurement": "effect in short-term MTT assay, rapid toxicity (in words)", "setting": "[4]", "value": "no biological activity"}, {"measurement": "cytostatic activity in long-term SRB assay (in words)", "setting": "[1]", "value": "no biological activity; also recorded: none of the corresponding ligands (L-2a, L-4, L-6, and L-8) had cytostatic properties"}]}
{"smiles": "O=C(OC[C@H]1O[C@@H](c2nnc(-c3ccccn3)o2)[C@H](OC(=O)c2ccccc2)[C@@H](OC(=O)c2ccccc2)[C@@H]1OC(=O)c1ccccc1)c1ccccc1", "note": "[Complex L-4, 2-(2′,3′,4′,6′-Tetra-O-benzoyl-β-D-glucopyranosyl)-5-(pyridin-2-yl)-1,3,4-oxadiazole]", "values": [{"measurement": "cytostatic activity in long-term SRB assay (in words)", "setting": "[2]", "value": "none of the corresponding ligands (L-2a, L-4, L-6, and L-8) had cytostatic properties"}, {"measurement": "effect in long-term SRB assay (in words)", "setting": "[3]; primary human fibroblasts", "value": "no effect"}, {"measurement": "effect in short-term MTT assay, rapid toxicity (in words)", "setting": "[4]", "value": "no biological activity"}, {"measurement": "cytostatic activity in long-term SRB assay (in words)", "setting": "[1]", "value": "no biological activity; also recorded: none of the corresponding ligands (L-2a, L-4, L-6, and L-8) had cytostatic properties"}]}
{"smiles": "O=C(O[C@@H]1[C@@H](OC(=O)c2ccccc2)[C@H](c2nnc(-c3ccccn3)o2)OC[C@H]1OC(=O)c1ccccc1)c1ccccc1", "note": "[Complex L-6, 2-(2′,3′,4′-Tri-O-benzoyl-β-D-xylopyranosyl)-5-(pyridin-2-yl)-1,3,4-oxadiazole]", "values": [{"measurement": "cytostatic activity in long-term SRB assay (in words)", "setting": "[2]", "value": "none of the corresponding ligands (L-2a, L-4, L-6, and L-8) had cytostatic properties"}, {"measurement": "effect in long-term SRB assay (in words)", "setting": "[3]; primary human fibroblasts", "value": "no effect"}, {"measurement": "effect in short-term MTT assay, rapid toxicity (in words)", "setting": "[4]", "value": "no biological activity"}, {"measurement": "cytostatic activity in long-term SRB assay (in words)", "setting": "[1]", "value": "no biological activity; also recorded: none of the corresponding ligands (L-2a, L-4, L-6, and L-8) had cytostatic properties"}]}
{"smiles": "O=C(OC[C@H]1O[C@@H](c2nnc(-c3ccccn3)o2)[C@H](OC(=O)c2ccccc2)[C@@H](OC(=O)c2ccccc2)[C@H]1OC(=O)c1ccccc1)c1ccccc1", "note": "[Complex L-8, 2-(2′,3′,4′,6′-Tetra-O-benzoyl-β-D-galactopyranosyl)-5-(pyridin-2-yl)-1,3,4-oxadiazole]", "values": [{"measurement": "cytostatic activity in long-term SRB assay (in words)", "setting": "[2]", "value": "none of the corresponding ligands (L-2a, L-4, L-6, and L-8) had cytostatic properties"}, {"measurement": "effect in long-term SRB assay (in words)", "setting": "[3]; primary human fibroblasts", "value": "no effect"}, {"measurement": "effect in short-term MTT assay, rapid toxicity (in words)", "setting": "[4]", "value": "no biological activity"}, {"measurement": "cytostatic activity in long-term SRB assay (in words)", "setting": "[1]", "value": "no biological activity; also recorded: none of the corresponding ligands (L-2a, L-4, L-6, and L-8) had cytostatic properties"}]}
{"smiles": "c1ccc(-n2cc(-c3ccccn3)nn2)cc1", "note": "[Complex L-13, 1-phenyl-4-(pyridine-2-yl)-1,2,3-triazole]", "values": [{"measurement": "cytostatic activity in long-term SRB assay (in words)", "setting": "[1]", "value": "Neither of the free ligands, L-13 or L-14, had cytostatic activity"}]}
{"smiles": "c1ccc(-c2nnc(-c3ccccn3)o2)cc1", "note": "[Complex L-14, 2-phenyl-5-(pyridine-2-yl)-1,3,4-oxadiazole]", "values": [{"measurement": "cytostatic activity in long-term SRB assay (in words)", "setting": "[1]", "value": "Neither of the free ligands, L-13 or L-14, had cytostatic activity"}]}
{"smiles": "O=C1[O][Pt]2([NH][C@@H]3CCCC[C@H]3[NH]2)[O]C1=O", "note": "[Oxaliplatin, oxaliplatin, reference compound]", "values": [{"measurement": "IC50", "setting": "[2]", "value": 4.59, "unit": "µM"}, {"measurement": "ID8 Hill Slope", "setting": "[2]", "value": 1.58}, {"measurement": "Fibroblast Hill Slope", "setting": "[3]; [6]", "value": 0.37}, {"measurement": "effect in long-term SRB assay (in words)", "setting": "[3]; primary human fibroblasts", "value": "no effect"}, {"measurement": "A2780 Hill Slope", "setting": "[1]", "value": 1.27}, {"measurement": "IC50", "setting": "[1]", "value": 0.12, "unit": "µM"}]}
{"smiles": "Cc1ccc(C(C)C)cc1.F[P-](F)(F)(F)(F)F.[Cl][Ru+].c1ccc(-n2cc(-c3ccccn3)nn2)cc1", "note": "[Ru-13]", "values": [{"measurement": "cytostatic activity in long-term SRB assay (in words)", "setting": "[1]", "value": "lowered the cytostatic capacity"}, {"measurement": "A2780 Hill Slope", "setting": "[1]", "value": "1.5 and 1.57"}, {"measurement": "IC50", "setting": "[1]", "value": 12, "unit": "µM"}]}
{"smiles": "Cc1ccc(C(C)C)cc1.F[P-](F)(F)(F)(F)F.[Cl][Ru+].c1ccc(-c2nnc(-c3ccccn3)o2)cc1", "note": "[Ru-14]", "values": [{"measurement": "cytostatic activity in long-term SRB assay (in words)", "setting": "[1]", "value": "no cytostatic activity; also recorded: fully abrogated it"}, {"measurement": "A2780 Hill Slope", "setting": "[1]", "value": 0.77}]}
{"smiles": "CNCc1ccc(-c2[nH]c3cc(F)cc4c3c2CCNC4=O)cc1", "note": "[Rucaparib, rucaparib, reference compound]", "values": [{"measurement": "cell proliferation (in words)", "setting": "[5]", "value": "reduced cell proliferation"}]}
